Like-named read-outs stand apart in the source and are kept apart here.
What was measured:
[1] = Pharmacokinetics in specific populations; format: in vivo, human; settings: age 21-88 years, sex, race, body weight 36-132 kg, mild or moderate renal impairment, mild hepatic impairment
[2] = clinical; settings: human, in vivo
[3] = Effect of food (high-fat and high-calorie meal) on pharmacokinetics in healthy subjects; format: in vivo, human
[4] = test system: metastatic or surgically unresectable urothelial cancer harboring select FGFR genetic alterations; settings: for ORR, BIRC assessment / ORR, investigator assessment: chemotherapy-refractory patients in Regimen 3
Source text: The study comprises a Screening Phase (molecular screening at any time prior to first dose and study screening within 30 days of first dose), a treatment phase, and a post-treatment follow-up phase. The treatment phase comprises the period from first dose until the end-of-treatment visit. The follow-up phase extends until the subject has died, withdraws consent, is lost to follow-up, or the end of study, whichever comes first.
Included patients were adults with measurable urothelial cancer per Response Evaluation Criteria in Solid Tumors version 1.1.
Patients were required to have at least 1 FGFR2/FGFR3 mutation or fusion per central lab testing of RNA from formalin-fixed, paraffin-embedded tumor samples, using a custom reverse transcriptase polymerase chain reaction assay.
The primary end point of this study is Objective Response Rate to the selected regimen (Regimen 3).
Secondary end points include progression-free survival (PFS), response duration, Overall Survival, safety, response rate in biomarker-specific subgroups, and pharmacokinetics.
The study was designed to enroll 180 patients with specified FGFR alterations. Of these, ≥88 were required in the selected regimen. […] Responses were assessed by investigators and an independent radiological review committee. Progression-free survival and overall survival were estimated using Kaplan-Meier product limit method. Data from patients who were progression free and alive or with unknown status were censored at last tumor assessment. Efficacy end points were analysed at primary analysis cut-off.

[5] = Excretion following a single oral dose of radiolabeled erdafitinib; format: in vivo, human
[6] = 187 patients with cancer; large effect i.e. >20 ms
[7] = test system: serum phosphate; test: Pharmacodynamics: serum phosphate level; format: in vivo, human; settings: consequence of FGFR inhibition
Source text: To manage phosphate elevation, phosphate binders were permitted. Avoid concomitant use with agents that can alter serum phosphate levels before the initial dose increase period based on serum phosphate levels.

[8] = human, in vivo
[9] = in vitro; format: in vitro ADME; settings: human
[10] = Chemotherapy-refractory patients in Regimen 3 (N = 87)
[11] = Regimen 1, 10 mg intermittent (n = 33)
[12] = Regimen 2, 6 mg continuous (n = 78)
[13] = Regimen 3, of 97 patients with ≥1 postbaseline disease evaluation

COc1cc(OC)cc(N(CCNC(C)C)c2ccc3ncc(-c4cnn(C)c4)nc3c2)c1 [erdafitinib, N-(3,5-dimethoxy-phenyl)-N′-(1-methylethyl)-N-[3-(1-methyl-1H-pyrazol-4-yl)quinoxalin-6-yl]ethane-1,2-diamine]
Trends in pharmacokinetics in specific populations [1]: No clinically meaningful trends | Vd [2]: 29 L | half-life [2]: 59 h | Effect of food on erdafitinib pharmacokinetics [3]: No clinically meaningful differences | Objective response rate per investigator assessment ([4]; 8 mg non-uptitrated continuous dose regimen, Regimen 3): (34.5) % | Objective response rate per investigator assessment ([4]; 8 mg uptitrated to 9 mg continuous dose regimen, Regimen 3): (48.8) % | Objective response rate per investigator assessment ([4]; Bone metastases, Regimen 1, 10 mg intermittent): (17) % | Objective response rate per investigator assessment ([4]; Bone metastases, Regimen 2, 6 mg continuous): (40) % | Objective response rate per investigator assessment ([4]; Bone metastases, Regimen 3, 8 mg continuous): (31.8) % | Objective response rate per investigator assessment ([4]; Chemotherapy-naïve, Regimen 1, 10 mg intermittent): (25) % | Objective response rate per investigator assessment ([4]; Chemotherapy-naïve, Regimen 2, 6 mg continuous): (0) % | Objective response rate per investigator assessment ([4]; Chemotherapy-naïve, Regimen 3, 8 mg continuous): (41.7) % | Complete response (CR), investigator assessment [4, 10]: 3.4% | Partial response (PR), investigator assessment [4, 10]: 36.8% | ORR, BIRC assessment ([4]; FGFR2 Fusion (N = 6)): 0% | ORR, BIRC assessment ([4]; FGFR3 Fusion (N = 18)): 11.1% | ORR, BIRC assessment ([4]; FGFR3 Point Mutation (N = 64)): 40.6% | ORR, investigator assessment ([4]; FGFR3 Point Mutation (N = 64)): 48.4% | ORR, investigator assessment ([4]; FGFR Fusion (N = 23)): 17.4% | Objective response rate per investigator assessment ([4]; Liver metastases, Regimen 1, 10 mg intermittent): (27) % | Objective response rate per investigator assessment ([4]; Liver metastases, Regimen 2, 6 mg continuous): (24) % | Objective response rate per investigator assessment ([4]; Liver metastases, Regimen 3, 8 mg continuous): (35.0) % | Objective response rate per investigator assessment ([4]; Lower tract disease, Regimen 1, 10 mg intermittent): (9) % | Objective response rate per investigator assessment ([4]; Lower tract disease, Regimen 2, 6 mg continuous): (39) % | Objective response rate per investigator assessment ([4]; Lower tract disease, Regimen 3, 8 mg continuous): (39.5) % | Objective response rate per investigator assessment ([4]; Lung metastases, Regimen 1, 10 mg intermittent): (27) % | Objective response rate per investigator assessment ([4]; Lung metastases, Regimen 2, 6 mg continuous): (41) % | Objective response rate per investigator assessment ([4]; Lung metastases, Regimen 3, 8 mg continuous): (40.4) % | Objective response rate per investigator assessment ([4]; Lymph node metastases only, Regimen 1, 10 mg intermittent): (0) % | Objective response rate per investigator assessment ([4]; Lymph node metastases only, Regimen 2, 6 mg continuous): (67) % | Objective response rate per investigator assessment ([4]; Lymph node metastases only, Regimen 3, 8 mg continuous): (33.3) % | Objective response rate per investigator assessment ([4]; No. of lines of prior systemic therapy 0, Regimen 3, 8 mg continuous): (36.4) % | Objective response rate per investigator assessment ([4]; No. of lines of prior systemic therapy 1, Regimen 3, 8 mg continuous): (37.8) % | Objective response rate per investigator assessment ([4]; No. of lines of prior systemic therapy 2, Regimen 3, 8 mg continuous): (37.9) % | Objective response rate per investigator assessment ([4]; No. of lines of prior systemic therapy 3, Regimen 3, 8 mg continuous): (60.0) % | Objective response rate per investigator assessment ([4]; No. of lines of prior systemic therapy ≥4, Regimen 3, 8 mg continuous): (50.0) % | Objective response rate per investigator assessment ([4]; Progressed or relapsed after chemotherapy, Regimen 1, 10 mg intermittent): (21) % | Objective response rate per investigator assessment ([4]; Progressed or relapsed after chemotherapy, Regimen 2, 6 mg continuous): (37) % | Objective response rate per investigator assessment ([4]; Progressed or relapsed after chemotherapy, Regimen 3, 8 mg continuous): (40.2) % | Median progression-free survival per investigator assessment ([4]; Regimen 1): 4.8 months | Overall survival rate at 12 months ([4]; Regimen 1): 31% | Progression-free survival rate at 12 months ([4]; Regimen 1): 18% | Complete response per investigator assessment [4, 11]: 1 no. | Median time to response [4, 11]: 1.4 mo | Median overall survival ([4]; Regimen 1, median follow-up 22.9 months): 7.5 months | Median progression-free survival per investigator assessment ([4]; Regimen 2): 5.3 months | Overall survival rate at 12 months ([4]; Regimen 2): 33% | Progression-free survival rate at 12 months ([4]; Regimen 2): 11% | Complete response per investigator assessment [4, 12]: 3 no. | Median time to response [4, 12]: 1.4 mo | Median overall survival ([4]; Regimen 2, median follow-up 18.5 months): 8.6 months | Responses maintained for >12 months ([4]; Regimen 3): roughly 30% | Survival rate at 12 months ([4]; Regimen 3): 55% | Median time to response ([4]; Regimen 3, 8 mg continuous (n = 99)): 1.4 mo | Median progression-free survival ([4]; Regimen 3, 8 mg per day continuous (FIG. 5A)): 5.5 months | Median overall survival ([4]; Regimen 3, 8 mg per day continuous (FIG. 5B)): 13.8 months | Patients who responded ([4]; Regimen 3, FGFR3-TACC3 V1 fusion (n=11)): 36.4% | Disease stabilization lasting >6 months ([4]; Regimen 3, among 39 patients with stable disease): 33% | Additional patients with stable disease ([4]; Regimen 3, patients with FGFR mutations (n=74)): 26 patients | Progression-free survival rate at 12 months ([4]; Regimen 3, per investigator assessment): 19% | Patients with maximum tumor reduction between 30% and 100% [4, 13]: 49% | Patients with reduction in sum of target lesion diameters [4, 13]: 77% | Objective response rate per investigator assessment ([4]; Upper tract disease, Regimen 1, 10 mg intermittent): (46) % | Objective response rate per investigator assessment ([4]; Upper tract disease, Regimen 2, 6 mg continuous): (23) % | Objective response rate per investigator assessment ([4]; Upper tract disease, Regimen 3, 8 mg continuous): (43.5) % | Objective response rate per investigator assessment ([4]; With FGFR2/3 fusions, Regimen 1, 10 mg intermittent): (0) % | Objective response rate per investigator assessment ([4]; With FGFR2/3 fusions, Regimen 2, 6 mg continuous): (17) % | Objective response rate per investigator assessment ([4]; With FGFR3 mutations, Regimen 1, 10 mg intermittent): (22) % | Objective response rate per investigator assessment ([4]; With FGFR3 mutations, Regimen 2, 6 mg continuous): (36) % | Objective response rate per investigator assessment ([4]; With visceral metastases, Regimen 1, 10 mg intermittent): (29) % | Objective response rate per investigator assessment ([4]; With visceral metastases, Regimen 2, 6 mg continuous): (32) % | Objective response rate per investigator assessment ([4]; With visceral metastases, Regimen 3, 8 mg continuous): (38.5) % | Objective response rate per investigator assessment ([4]; Without visceral metastases, Regimen 1, 10 mg intermittent): (0) % | Objective response rate per investigator assessment ([4]; Without visceral metastases, Regimen 2, 6 mg continuous): (42) % | Objective response rate per investigator assessment ([4]; Without visceral metastases, Regimen 3, 8 mg continuous): (47.6) % | Dose recovered in feces [5]: approximately 69% | Dose recovered in feces as unchanged [5]: 19% | Dose recovered in urine [5]: 19% | Dose recovered in urine as unchanged [5]: 13% | Effect on the QTc interval [6]: no large effect | Effect on serum phosphate level [7]: increased serum phosphate level | Circulating metabolites in plasma [8]: no circulating metabolites | Exposure (Cmax and AUC) versus dose [8]: increased proportionally | Mean total apparent clearance (CL/F) [8]: 0.362 L/h | Time to steady state [8]: 2 weeks | fraction unbound [9]: 0.002

Source: patent publication US20220175768A1, “FGFR TYROSINE KINASE INHIBITORS FOR THE TREATMENT OF UROTHELIAL CARCINOMA” (Janssen Pharmaceutica NV, priority 2019, published 2022)
